Molecules are shown by their SMILES.

The assay concerns the target VIM-2 metallo-beta-lactamase (Pseudomonas aeruginosa) (UniProt Q932Y6). In words: VIM-2 inhibitor FRET-based artefact check, dose response, artefact control for selective VIM-2 inhibitor project, biochemical, FRET readout, CCF2 substrate (AID 1926). Conditions: purified VIM-2, CCF2 FRET substrate hydrolysis.

As usually defined, the IC50 is the concentration needed to halve the response being measured. In the case of `S=c1[nH]nc(-c2ccccc2)n1Cc1ccccc1`, the 50% inhibitory concentration (IC50) was 8.3 µM.
The value for `CC(=O)c1ccc(-c2ccc(Cn3c(C)nc4cc(N)c(C)nc43)cc2)cc1` was 6.28 µM.

Values taken from PubChem BioAssay AID1926 (The Scripps Research Institute Molecular Screening Center, 2009).
